Experimental data published in BindingDB's records for patent US20260022122 (Checkmate Therapeutics, 2026).

What follows are molecules tested against Nicotinamide phosphoribosyltransferase (Homo sapiens, UniProt P43490) (assay: Measurement of NamPT Inhibitory Ability IC50).
Experimental: To test the effect of the compound prepared in each Example on the substrate decomposition rate (Vmax/min) mediated by NamPT enzyme, IC50 was calculated. In this experiment, the NamPT colorimetric assay kit (ab221819) produced by Abcam was used, and Graph prism software was used for IC50 calculation. PRPP, ATP, NMNAT1, NamPT recombinant proteins, and various concentrations of the compound of each Example (half-log step dilution from 100 μM) were added to nicotinamide to synthesize nicotinamide adenine dinucleotide (NAD) from the nicotinamide, and a total of 60 μL of the reaction solution was reacted at room temperature for 1 hour. WST-1 formazan converted by NAD generated by adding WST-1 was measured. The result of the reaction was obtained by the following formula by measuring absorbance using EnVision2105 (PerkinElmer) at 450 nm for 60 minutes at 2-minute intervals.

Nicotinamide phosphoribosyltransferase, sequence (P43490 whole entry): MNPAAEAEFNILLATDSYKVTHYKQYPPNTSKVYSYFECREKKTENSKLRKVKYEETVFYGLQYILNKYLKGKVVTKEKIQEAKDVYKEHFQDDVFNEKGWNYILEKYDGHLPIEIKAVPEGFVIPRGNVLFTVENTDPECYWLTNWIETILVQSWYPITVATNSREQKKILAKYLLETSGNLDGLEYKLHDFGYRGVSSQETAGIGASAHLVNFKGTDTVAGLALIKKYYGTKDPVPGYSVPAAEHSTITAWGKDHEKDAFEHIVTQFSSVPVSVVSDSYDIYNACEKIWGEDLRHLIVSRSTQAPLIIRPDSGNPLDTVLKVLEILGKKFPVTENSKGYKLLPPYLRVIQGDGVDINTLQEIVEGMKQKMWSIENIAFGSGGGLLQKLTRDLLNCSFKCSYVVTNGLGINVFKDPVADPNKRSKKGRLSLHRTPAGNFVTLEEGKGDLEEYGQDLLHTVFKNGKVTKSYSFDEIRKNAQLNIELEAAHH

IC50, < 50 nM:
CC(C)c1ccc2nc(-c3ccc(CNC(=O)c4cnc5nccn5c4)cc3)oc2c1
CS(=O)(=O)Nc1ccc2oc(-c3ccc(CNC(=O)c4cnc5nccn5c4)cc3)nc2c1 [US20260022122, Example 47]
Cc1ccc2sc(-c3ccc(CNC(=O)c4cnc5nccn5c4)cc3)nc2c1 [US20260022122, Example 48]
